Results from paper PMC12586182 (Frontiers in Oncology, 2025).
“Also recorded” adds a separate entry of the source.

What was measured:
SK-N-SH = assay: Cell viability assay (ATPlite); type: cell-based; settings: Homo sapiens; SK-N-SH cell line, 72 hours incubation
Method: (§1) Intracellular ATP content was used as an indirect readout of cell number using the ATPlite 1Step bioluminescence assay (Revvity, Groningen, the Netherlands). Cells were seeded in 384-well plates at an optimized density to ensure unrestricted growth and maximal signal at the end of the experiment. After 24 hours of incubation, the starting cell number was determined by adding ATPlite to each well of a control plate and recording luminescence on an Envision multimode reader (Revvity, Waltham, MA, USA) ([4]). Compounds were diluted in DMSO in √10-fold steps from 10 mmol/L stocks to obtain 9-point dilution series. After further 31.6-fold dilution in 20 mmol/L HEPES (pH 7.4), the dilution series were added in duplicate to the cells in the 384-well plates to determine the effect of the compounds on cell viability. Vehicle-treated controls were included to determine maximal cell proliferation. The final DMSO concentration was 0.4% (v/v) in all wells. After incubation for an additional 72 hours, the ATP content was measured in each well using ATPlite. The luminescent signal in inhibitor-treated wells was normalized to vehicle-treated control wells to determine the percentage viability at each concentration. Cell doublings were determined by relating the cell number of vehicle-treated controls to the starting cell number for each cell line. The viability assay of a cell line was repeated when the cell doubling deviated > 2-fold from the historic doubling as determined by multiple independent experiments. The quality of the complete assay was determined by a parallel test with doxorubicin on two cell lines. IC50 values were calculated by fitting a four-parameter logistic model to the percentage viability values using IDBS XLfit5 (IDBS, Guildford, United Kingdom). All curves were visually inspected and submitted to an F-test as implemented in IDBS XLfit5. Curves with an F-value above 1.5 were invalidated and IC50 values were maximized at the highest concentration.

SW900 = assay: Cell viability assay (ATPlite); type: cell-based; settings: Homo sapiens; SW900 cell line, 72 hours incubation
Method: as §1

JAR = assay: Cell viability assay (ATPlite); type: cell-based; settings: Homo sapiens; JAR cell line, 72 hours incubation
Method: as §1

CCRF-CEM = assay: Cell viability assay (ATPlite); type: cell-based; settings: Homo sapiens; CCRF-CEM cell line, 72 hours incubation
Method: as §1

5637 = assay: Cell viability assay (ATPlite); type: cell-based; settings: Homo sapiens; 5637 cell line, 72 hours incubation
Method: as §1

A-375 = assay: Cell viability assay (ATPlite); type: cell-based; settings: Homo sapiens; A-375 cell line, 72 hours incubation
Method: as §1

MIA PaCa-2 = assay: Cell viability assay (ATPlite); type: cell-based; settings: Homo sapiens; MIA PaCa-2 cell line, 72 hours incubation
Method: as §1

RL = assay: Cell viability assay (ATPlite); type: cell-based; settings: Homo sapiens; RL cell line, 72 hours incubation
Method: as §1

B-RAF [V600E] = B-RAF [V600E] (Homo sapiens, UniProt P15056, V600E); assay: Kinase enzyme activity assay at 1 mmol/L ATP (Carna)
B-RAF [V600E], sequence (P15056 whole entry V600E): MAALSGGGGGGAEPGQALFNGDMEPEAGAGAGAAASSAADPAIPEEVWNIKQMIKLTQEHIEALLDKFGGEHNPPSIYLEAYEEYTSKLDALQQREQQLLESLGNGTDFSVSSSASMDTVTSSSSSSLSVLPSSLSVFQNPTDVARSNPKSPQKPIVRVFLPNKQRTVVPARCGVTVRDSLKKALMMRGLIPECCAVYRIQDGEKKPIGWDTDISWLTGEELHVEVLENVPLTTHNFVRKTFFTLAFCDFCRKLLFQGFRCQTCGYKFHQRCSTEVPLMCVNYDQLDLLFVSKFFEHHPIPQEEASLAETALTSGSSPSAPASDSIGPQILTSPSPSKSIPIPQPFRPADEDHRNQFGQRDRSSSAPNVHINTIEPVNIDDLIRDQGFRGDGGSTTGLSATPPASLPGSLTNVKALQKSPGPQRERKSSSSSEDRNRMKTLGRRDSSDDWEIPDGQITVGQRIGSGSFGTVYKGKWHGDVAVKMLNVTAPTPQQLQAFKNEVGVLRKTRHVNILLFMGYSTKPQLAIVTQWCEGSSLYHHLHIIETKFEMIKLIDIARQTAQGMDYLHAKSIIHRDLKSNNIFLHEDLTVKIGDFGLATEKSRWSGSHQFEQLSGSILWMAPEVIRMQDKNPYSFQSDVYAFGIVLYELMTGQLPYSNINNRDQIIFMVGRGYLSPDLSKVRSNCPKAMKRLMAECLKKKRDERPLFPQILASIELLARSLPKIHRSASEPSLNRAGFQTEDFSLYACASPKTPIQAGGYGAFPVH
Method: Inhibition of MLK1 and B-RAF at K M,ATP was determined in a radiometric assay using ^32P-labeled ATP at Eurofins Cerep SA (Celle-Lévescault, France).

MEK1 = target: T1, MEK1 (Homo sapiens, UniProt Q02750); set-up: method as in Reiff et al. [15]; settings: 1 mmol/L ATP; ref Reiff et al. [15]; read-out: IC50 in an enzyme assay for MEK1; cited from earlier work
T1 construct: purchased Carna Biosciences, Inc. 07–41
T1 sequence (Q02750 whole entry): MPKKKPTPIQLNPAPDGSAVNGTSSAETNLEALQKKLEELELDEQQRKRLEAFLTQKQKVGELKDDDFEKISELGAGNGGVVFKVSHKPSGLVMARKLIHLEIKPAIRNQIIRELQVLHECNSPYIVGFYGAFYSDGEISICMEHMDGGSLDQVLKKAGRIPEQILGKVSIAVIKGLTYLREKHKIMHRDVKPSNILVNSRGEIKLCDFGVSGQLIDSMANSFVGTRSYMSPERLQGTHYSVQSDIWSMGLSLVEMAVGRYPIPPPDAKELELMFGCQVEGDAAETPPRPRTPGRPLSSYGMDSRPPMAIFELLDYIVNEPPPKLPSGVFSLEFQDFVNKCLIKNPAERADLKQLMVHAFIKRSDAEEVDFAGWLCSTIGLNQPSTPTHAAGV

[1] = target: biotinylated, inactive MEK1 (Homo sapiens, UniProt Q02750); assay: Surface plasmon resonance binding (Biacore 1S+); settings: SPR
biotinylated, inactive MEK1, sequence (Q02750 whole entry): as above

[2] = test system: panel of 160 human cancer cell lines; assay: Cancer cell panel profiling in cell viability assays (ATPlite); type: cell-based
From the text: A panel of 160 cancer cell lines was used in this study. […]. Cell lines were purchased from the American Type Culture Collection (ATCC) (Manassas, VA, USA), the German Collection of Microorganisms and Cell Cultures (DSMZ) (Braunschweig, Germany), the RIKEN BioResource Research Center (Tsukuba, Ibaraki, Japan) or the Japanese Collection of Research Bioresources (JCRB) (Ibaraki City, Osaka, Japan). All cell lines were propagated in the cell culture media as indicated in Supplementary Table S1 . Cell viability assays were carried out within ten passages of the original vials. The authenticity of the ATCC and DSMZ cell lines has been confirmed by short tandem repeat analysis at both institutions. […]
Intracellular ATP content was used as an indirect readout of cell number using the ATPlite 1Step bioluminescence assay (Revvity, Groningen, the Netherlands). […] After 24 hours of incubation, the starting cell number was determined by adding ATPlite to each well of a control plate and recording luminescence on an Envision multimode reader (Revvity, Waltham, MA, USA) ([4]). […] After incubation for an additional 72 hours, the ATP content was measured in each well using ATPlite. […] Cell doublings were determined by relating the cell number of vehicle-treated controls to the starting cell number for each cell line. […]

## O=C(c1ccc(Oc2ccccc2)cc1Cl)c1c[nH]c2ncnc(N[C@@H]3CC[C@@H](CO)OC3)c12 [nemtabrutinib]
SK-N-SH
  IC50: 3.43 µM
SW900
  IC50: 2.29 µM
JAR
  IC50: 18.1 µM
CCRF-CEM
  IC50: 13.7 µM
5637
  IC50: 3.46 µM
A-375
  IC50: 0.404 µM
MIA PaCa-2
  IC50: 2.77 µM
RL
  IC50: 4.06 µM
B-RAF [V600E]
  IC50: 0.22 µM
MEK1
  IC50: 0.599 µM
[1]
  log (kd): -3.49
  log(ka): 4.50
  t1/2: 35.67 min
[2]; SU-DHL-6 and REC-1 cells, dose-response curves
  Extent of inhibition of viability: almost complete inhibition of viability
[2]; average over cell panel, ANOVA
  Sensitivity of BRAF-mutant versus BRAF wild-type cell lines: three times higher; also recorded: three times more sensitive
